Measured values as given in ChEMBL document CHEMBL1201862, “PubChem BioAssay data set” (2004).
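Dose response: 5 concentrations. Exposure: 48 h. Format: 96-well plates. Endpoint: linear interpolation; highest concentration if not reached. The concentration for 50% growth inhibition is given as GI50.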 Active and inactive are the calls of the source. No stated cut-off is given here; in the data, active = GI50 up to about 1.1 µM and inactive = higher.

Experiments:
Experiment in all cases: NCI tumour cell line growth inhibition, 48 h
OVCAR-4 = test system: OVCAR-4
SK-OV-3 = test system: SK-OV-3
SK-MEL-5 = test system: SK-MEL-5
COLO 205 = test system: COLO 205
SK-MEL-2 = test system: SK-MEL-2
EKVX = test system: EKVX
T47D = test system: T47D
IGROV-1 = test system: IGROV-1
A549 = test system: A549
Hs-578T = test system: Hs-578T
SNB-19 = test system: SNB-19
HCT-15 = test system: HCT-15
CCRF-CEM = test system: CCRF-CEM
ACHN = test system: ACHN
KM12 = test system: KM12
BT-549 = test system: BT-549
K562 = test system: K562
NCI/ADR-RES = test system: NCI/ADR-RES
RXF 393 = test system: RXF 393

Structure (SMILES) | GI50 (OVCAR-4) | GI50 (SK-OV-3) | GI50 (SK-MEL-5) | GI50 (COLO 205) | GI50 (SK-MEL-2) | GI50 (EKVX) | GI50 (T47D) | GI50 (IGROV-1) | GI50 (A549) | GI50 (Hs-578T) | GI50 (SNB-19) | GI50 (HCT-15) [µM] | GI50 (CCRF-CEM) | GI50 (ACHN) | GI50 (KM12) | GI50 (BT-549) | GI50 (K562) | GI50 (NCI/ADR-RES) | GI50 (RXF 393)
COc1ccc2cc(NC(=O)Nn3cnnc3)ccc2c1 | > 100 µM (inactive) | > 100 µM (inactive) | > 100 µM (inactive) | > 100 µM (inactive) | > 100 µM (inactive) | 80.7 µM (inactive) | > 100 µM (inactive) | > 100 µM (inactive) | > 100 µM (inactive) | > 100 µM (inactive) | > 100 µM (inactive) | > 100 | > 100 µM (inactive) | > 100 µM (inactive) | 92.5 µM (inactive) | > 100 µM (inactive) | > 100 µM (inactive) | – | –
CCOP1(=O)OCC2OC(n3cnc4c(N)ncnc43)C(O)C2O1.c1ccccc1 (stereo unspecified) | > 100 µM (inactive) | > 100 µM (inactive) | > 100 µM (inactive) | > 100 µM (inactive) | > 100 µM (inactive) | > 100 µM (inactive) | > 100 µM (inactive) | > 100 µM (inactive) | > 100 µM (inactive) | > 100 µM (inactive) | > 100 µM (inactive) | > 100 | – | > 100 µM (inactive) | > 100 µM (inactive) | > 100 µM (inactive) | > 100 µM (inactive) | > 100 µM (inactive) | > 100 µM (inactive)
O=c1c2c3c(sc2nc2n1N=C(c1ccc(Cl)cc1)CS2)CCCC3 | > 100 µM (inactive) | > 100 µM (inactive) | > 100 µM (inactive) | > 100 µM (inactive) | – | > 100 µM (inactive) | > 100 µM (inactive) | > 100 µM (inactive) | > 100 µM (inactive) | > 100 µM (inactive) | – | > 100 | > 100 µM (inactive) | > 100 µM (inactive) | > 100 µM (inactive) | > 100 µM (inactive) | > 100 µM (inactive) | > 100 µM (inactive) | > 100 µM (inactive)
CN(C(=O)Cc1ccc(Cl)c(Cl)c1)[C@H]1CCCC[C@@H]1[N+]1(C)CCCC1 | > 100 µM (inactive) | > 100 µM (inactive) | 71.6 µM (inactive) | > 100 µM (inactive) | > 100 µM (inactive) | > 100 µM (inactive) | > 100 µM (inactive) | > 100 µM (inactive) | > 100 µM (inactive) | > 100 µM (inactive) | > 100 µM (inactive) | > 100 | 3.37 µM (inactive) | > 100 µM (inactive) | > 100 µM (inactive) | > 100 µM (inactive) | > 100 µM (inactive) | > 100 µM (inactive) | –
Cc1nnc2n(c1=O)CCN2C | > 100 µM (inactive) | > 100 µM (inactive) | > 100 µM (inactive) | > 100 µM (inactive) | > 100 µM (inactive) | > 100 µM (inactive) | > 100 µM (inactive) | > 100 µM (inactive) | > 100 µM (inactive) | > 100 µM (inactive) | > 100 µM (inactive) | > 100 | > 100 µM (inactive) | > 100 µM (inactive) | > 100 µM (inactive) | > 100 µM (inactive) | > 100 µM (inactive) | – | > 100 µM (inactive)
CCOc1ccc(/N=N/C2C(=O)N(C(=O)CC(=O)Nc3ccc(C)cc3)N=C2C)cc1 (stereo unspecified) | 25.3 µM (inactive) | – | 72.3 µM (inactive) | > 100 µM (inactive) | 26.6 µM (inactive) | 6.68 µM (inactive) | 37.8 µM (inactive) | 15.9 µM (inactive) | 34.7 µM (inactive) | 5.73 µM (inactive) | 14.3 µM (inactive) | 38.1 | 43.6 µM (inactive) | 50.8 µM (inactive) | 8.47 µM (inactive) | 23.6 µM (inactive) | – | 24.4 µM (inactive) | –
O=[N+]([O-])c1cn[n+]([O-])c2ccccc12 | – | 13.2 µM (inactive) | 13.2 µM (inactive) | 13.2 µM (inactive) | – | 12.9 µM (inactive) | 3.7 µM (inactive) | – | 12 µM (inactive) | 13.8 µM (inactive) | 11.5 µM (inactive) | 2.06 | 2.74 µM (inactive) | 1.13 µM (inactive) | 5.36 µM (inactive) | 5.22 µM (inactive) | – | 5.14 µM (inactive) | –
CC(=O)O[C@H]1CC2C(C3CCC(C(C)CCC(=O)O)[C@]31C)[C@H](OC(C)=O)C[C@@H]1CC3(CC[C@]21C)OOC1(CC[C@]2(C)C4C[C@H](OC(C)=O)[C@]5(C)C(C(C)CCC(=O)O)CCC5C4[C@H](OC(C)=O)C[C@@H]2C1)OO3 (stereo partly specified) | 2.8 µM (inactive) | 4.08 µM (inactive) | 1.55 µM (inactive) | 1.91 µM (inactive) | 1.77 µM (inactive) | 2.81 µM (inactive) | – | 2.12 µM (inactive) | 1.27 µM (inactive) | 1.5 µM (inactive) | 2.86 µM (inactive) | 2.22 | 2.59 µM (inactive) | 1.71 µM (inactive) | 1.31 µM (inactive) | 1.56 µM (inactive) | 2.44 µM (inactive) | 2.63 µM (inactive) | 1.36 µM (inactive)
